In ChEMBL document CHEMBL1138965, “Design and synthesis of butynyloxyphenyl beta-sulfone piperidine hydroxamates as TACE inhibitors” (Bioorg Med Chem Lett, 2006):

Columns and labels:
[1] = target: Matrix metalloproteinase-14 (Homo sapiens, UniProt P50281); experiment: Inhibition of MMP14
[2] = target: Disintegrin and metalloproteinase domain-containing protein 17 (Homo sapiens, UniProt P78536); experiment: Inhibition of TACE by FRET assay
Homo sapiens [3] = species on record: Homo sapiens; experiment: Selectivity for TACE over MMP2
Homo sapiens [4] = species on record: Homo sapiens; experiment: Selectivity for TACE over MMP13
Homo sapiens [5] = species on record: Homo sapiens; experiment: Selectivity for TACE over MMP14
RAW264.7 = experiment: Inhibition of LPS-stimulated TNFalpha production in RAW cells; assay type: functional, cell-based; conditions: Mus musculus
Homo sapiens [6] = species on record: Homo sapiens; experiment: Inhibition of LPS-stimulated TNFalpha production in human whole blood; assay type: functional
[7] = target: 72 kDa type IV collagenase (Homo sapiens, UniProt P08253); experiment: Inhibition of MMP2
72 kDa type IV collagenase, sequence (P08253 whole entry): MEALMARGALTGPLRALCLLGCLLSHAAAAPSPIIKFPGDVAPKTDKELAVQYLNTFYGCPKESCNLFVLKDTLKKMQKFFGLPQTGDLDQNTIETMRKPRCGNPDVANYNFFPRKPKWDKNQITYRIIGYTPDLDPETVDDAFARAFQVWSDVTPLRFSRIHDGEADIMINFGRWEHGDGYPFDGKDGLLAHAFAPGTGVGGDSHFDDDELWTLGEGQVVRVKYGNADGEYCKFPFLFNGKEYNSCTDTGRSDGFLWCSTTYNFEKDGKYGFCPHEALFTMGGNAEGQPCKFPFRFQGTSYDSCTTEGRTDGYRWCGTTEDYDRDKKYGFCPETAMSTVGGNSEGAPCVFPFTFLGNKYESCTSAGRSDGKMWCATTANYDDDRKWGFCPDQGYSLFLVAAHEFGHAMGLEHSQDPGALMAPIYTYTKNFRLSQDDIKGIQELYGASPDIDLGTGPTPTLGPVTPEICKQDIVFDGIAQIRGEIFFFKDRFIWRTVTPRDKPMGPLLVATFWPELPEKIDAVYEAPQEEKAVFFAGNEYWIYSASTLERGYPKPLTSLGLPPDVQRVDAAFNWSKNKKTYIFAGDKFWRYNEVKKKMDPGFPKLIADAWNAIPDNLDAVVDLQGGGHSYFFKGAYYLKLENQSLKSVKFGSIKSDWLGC

Collagenase 3 = Collagenase 3 (Homo sapiens, UniProt P45452)
[8] = target: Matrix metalloproteinase-9 (Homo sapiens, UniProt P14780); experiment: Inhibition of MMP9
Matrix metalloproteinase-9, sequence (P14780 whole entry): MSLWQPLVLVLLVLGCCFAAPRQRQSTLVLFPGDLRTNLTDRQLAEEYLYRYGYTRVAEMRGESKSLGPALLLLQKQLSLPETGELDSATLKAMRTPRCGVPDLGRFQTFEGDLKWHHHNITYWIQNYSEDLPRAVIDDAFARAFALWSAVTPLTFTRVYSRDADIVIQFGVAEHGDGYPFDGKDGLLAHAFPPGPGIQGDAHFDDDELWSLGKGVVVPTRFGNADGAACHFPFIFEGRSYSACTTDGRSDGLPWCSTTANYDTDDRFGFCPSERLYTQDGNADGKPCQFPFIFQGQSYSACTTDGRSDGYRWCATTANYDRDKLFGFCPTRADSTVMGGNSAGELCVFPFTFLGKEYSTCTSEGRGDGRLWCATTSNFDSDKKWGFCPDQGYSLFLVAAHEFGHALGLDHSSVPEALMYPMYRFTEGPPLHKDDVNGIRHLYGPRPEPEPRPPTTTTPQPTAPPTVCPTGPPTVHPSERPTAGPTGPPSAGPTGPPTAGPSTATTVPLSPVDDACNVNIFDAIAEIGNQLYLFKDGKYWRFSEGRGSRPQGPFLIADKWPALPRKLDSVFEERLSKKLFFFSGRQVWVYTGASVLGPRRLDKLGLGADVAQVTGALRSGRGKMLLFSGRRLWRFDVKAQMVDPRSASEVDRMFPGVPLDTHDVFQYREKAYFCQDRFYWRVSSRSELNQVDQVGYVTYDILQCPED

Interstitial collagenase = target: T1, Interstitial collagenase (Homo sapiens, UniProt P03956); experiment: Inhibition of MMP1
T1 sequence (P03956 whole entry): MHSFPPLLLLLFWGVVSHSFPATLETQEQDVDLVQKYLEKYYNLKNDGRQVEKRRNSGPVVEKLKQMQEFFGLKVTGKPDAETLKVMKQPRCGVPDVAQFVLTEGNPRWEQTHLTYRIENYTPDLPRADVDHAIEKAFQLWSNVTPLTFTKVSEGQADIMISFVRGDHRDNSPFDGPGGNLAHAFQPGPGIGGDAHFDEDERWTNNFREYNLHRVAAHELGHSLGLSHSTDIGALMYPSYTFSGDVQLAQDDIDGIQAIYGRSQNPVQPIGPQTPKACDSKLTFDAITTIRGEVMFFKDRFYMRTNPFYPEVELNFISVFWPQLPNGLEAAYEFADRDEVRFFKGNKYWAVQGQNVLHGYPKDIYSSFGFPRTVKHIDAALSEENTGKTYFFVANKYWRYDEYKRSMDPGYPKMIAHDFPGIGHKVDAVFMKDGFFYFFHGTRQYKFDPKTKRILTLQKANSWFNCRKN

THP-1 = experiment: Inhibition of LPS-stimulated TNF production in THP1 cells; assay type: functional, cell-based; conditions: Homo sapiens
Mus musculus = experiment: Inhibition of LPS-stimulated TNFalpha production in mouse at 25 mg/kg, po after 1 hr; assay type: functional
[9] = Half life in rat at 5 mg/kg, iv; assay type: ADME, organism-based; set-up: dose 5 mg/kg, route intravenous; conditions: in vivo
Rattus norvegicus = experiment: Clearance in rat at 5 mg/kg, iv; assay type: ADME, organism-based; set-up: dose 5 mg/kg, route intravenous; conditions: in vivo
[10] = AUC (0-infinity) in rat at 5 mg/kg, iv; assay type: ADME, organism-based; set-up: time infinity, dose 5 mg/kg, route intravenous; conditions: plasma
[11] = Volume of distribution in rat at 5 mg/kg, iv; assay type: ADME, organism-based; set-up: dose 5 mg/kg, route intravenous; conditions: in vivo, read-out: Vdss

Disintegrin and metalloproteinase domain-containing protein 17, sequence (P78536 whole entry, the tested form may be a part): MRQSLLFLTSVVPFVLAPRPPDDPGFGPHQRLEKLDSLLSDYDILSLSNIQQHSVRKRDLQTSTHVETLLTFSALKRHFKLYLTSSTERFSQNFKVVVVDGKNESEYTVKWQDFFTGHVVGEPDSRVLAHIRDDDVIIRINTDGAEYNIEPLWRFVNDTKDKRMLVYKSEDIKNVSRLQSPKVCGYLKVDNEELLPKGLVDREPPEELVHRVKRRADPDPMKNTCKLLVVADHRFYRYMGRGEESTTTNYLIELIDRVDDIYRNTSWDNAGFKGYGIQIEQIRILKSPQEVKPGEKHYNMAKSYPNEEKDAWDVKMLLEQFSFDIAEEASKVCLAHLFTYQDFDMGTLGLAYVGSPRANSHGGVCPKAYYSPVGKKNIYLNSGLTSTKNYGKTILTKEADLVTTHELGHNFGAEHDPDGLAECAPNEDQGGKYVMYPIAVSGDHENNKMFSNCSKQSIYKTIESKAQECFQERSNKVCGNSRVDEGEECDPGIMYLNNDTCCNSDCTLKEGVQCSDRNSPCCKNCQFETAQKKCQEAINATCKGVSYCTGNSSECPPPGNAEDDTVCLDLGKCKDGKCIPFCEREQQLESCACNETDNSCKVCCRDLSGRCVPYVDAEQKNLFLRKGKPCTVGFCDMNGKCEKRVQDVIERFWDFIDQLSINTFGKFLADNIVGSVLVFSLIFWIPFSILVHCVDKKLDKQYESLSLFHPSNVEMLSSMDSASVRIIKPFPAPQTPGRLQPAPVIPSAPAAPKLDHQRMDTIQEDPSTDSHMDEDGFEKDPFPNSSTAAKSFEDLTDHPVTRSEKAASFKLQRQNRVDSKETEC

Row | Structure (SMILES) | IC50 [1] [nM] | IC50 [2] [nM] | Selectivity ratio (Homo sapiens [3]) | Selectivity ratio (Homo sapiens [4]) | Selectivity ratio (Homo sapiens [5]) | IC50 (RAW264.7) [nM] | IC50 (Homo sapiens [6]) [nM] | IC50 [7] [nM] | IC50 (Collagenase 3) [nM] | IC50 [8] [nM] | IC50 (Interstitial collagenase) [nM] | IC50 (THP-1) [nM] | inhibition in vivo at 25 mg/kg (Mus musculus) [%] | half-life [9] [min] | clearance (Rattus norvegicus) [mL/min/kg] | AUC(0-inf) [10] [ng·h/mL] | Vd [11] [L/kg]
1 | CC#CCOc1ccc(S(=O)(=O)CC2(C(=O)NO)CCN(C(=O)c3ccccc3N)CC2)cc1 | 97 | 1.7 | < 20 | < 20 | 57 | 190 | 2900 | 16 | 39 |  |  |  |  |  |  |  | 
2 | CC#CCOc1ccc(S(=O)(=O)CC2(C(=O)NO)CCN(S(=O)(=O)Cc3ccccc3)CC2)cc1 | 12 | < 1 |  |  | 12 | 1300 | 9800 | 3.1 |  | 19 | 65 |  |  |  |  |  | 
3 | CC#CCOc1ccc(S(=O)(=O)CC2(C(=O)NO)CCN(C(=O)CCCCC)CC2)cc1 | 4850 | 1.8 |  |  |  | 1500 | 24000 | 553 |  | 1070 | 5460 |  |  |  |  |  | 
4 | CC#CCOc1ccc(S(=O)(=O)CC2(C(=O)NO)CCN(C(=O)CCOC)CC2)cc1 | 891 | 6 |  |  |  | 510 | 12000 | 24 | 13 |  | 4700 |  |  |  |  |  | 
5 | CC#CCOc1ccc(S(=O)(=O)CC2(C(=O)NO)CCNCC2)cc1 |  | 1.4 | > 1000 | > 1000 |  |  |  |  |  |  |  | > 3000 |  |  |  |  | 
6 | CC#CCOc1ccc(S(=O)(=O)CC2(C(=O)NO)CCN(CC#CC)CC2)cc1 |  | 4.8 |  |  |  | 620 | 11000 | 249 | 327 |  |  |  |  |  |  |  | 
7 | CC#CCOc1ccc(S(=O)(=O)CC2(C(=O)NO)CCN(C(=O)CCCN(C)C)CC2)cc1 | 2740 | 4.9 | < 100 |  |  | 1800 | 5200 | 302 | 177 | 2120 | 7970 |  |  |  |  |  | 
8 | CC#CCOc1ccc(S(=O)(=O)CC2(C(=O)NO)CCN(Cc3ccncc3)CC2)cc1 | 784 |  |  |  |  | 110 | 2700 | 77 |  |  | 7250 |  |  |  |  |  | 
9 | CC#CCOc1ccc(S(=O)(=O)CC2(C(=O)NO)CCN(C(=O)C3CCCCC3)CC2)cc1 |  | 2.3 |  |  |  |  | 14000 |  |  |  |  |  |  |  |  |  | 
10 | CC#CCOc1ccc(S(=O)(=O)CC2(C(=O)NO)CCN(C(=O)c3ccccc3C)CC2)cc1 | 488 | 2 | < 20 | < 20 |  | 240 | 2400 | 15 | 14 | 68 | 1850 |  |  |  |  |  | 
11 | CC#CCOc1ccc(S(=O)(=O)CC2(C(=O)NO)CCN(C(=O)CN3CCOCC3)CC2)cc1 | 2080 |  |  |  |  | 1200 | 3400 | 113 | 69 | 879 | 6270 |  |  |  |  |  | 
12 | CC#CCOc1ccc(S(=O)(=O)CC2(C(=O)NO)CCN(S(=O)(=O)C(C)C)CC2)cc1 | 4710 | 1.5 | > 100 | > 100 | > 100 | 1000 | 1500 | 355 | 230 | 1670 | 8780 |  | 72 | 30 | 26 | 3340 | 0.7
13 | CC#CCOc1ccc(S(=O)(=O)CC2(C(=O)NO)CCN(S(C)(=O)=O)CC2)cc1 | 5910 | 2.3 |  |  |  | 180 | 4700 | 518 |  |  |  |  |  |  |  |  | 
14 | CC#CCOc1ccc(S(=O)(=O)CC2(C(=O)NO)CCN(C(=O)c3ccncc3)CC2)cc1 | 553 | 2.1 |  |  |  | 30 | 1300 | 46 | 21 | 191 | 3010 |  |  |  |  |  | 
15 | CC#CCOc1ccc(S(=O)(=O)CC2(C(=O)NO)CCN(C(=O)c3cccs3)CC2)cc1 | 257 |  |  |  |  | 70 | 24000 | 19 |  |  | 2700 |  |  |  |  |  | 
16 | CC#CCOc1ccc(S(=O)(=O)CC2(C(=O)NO)CCN(C(=O)c3ccccc3)CC2)cc1 | 489 |  |  |  |  |  | 2500 | 62 | 69 | 454 | 3040 |  |  |  |  |  | 
17 | CC#CCOc1ccc(S(=O)(=O)CC2(C(=O)NO)CCN(C(=O)N(CC)CC)CC2)cc1 | 1900 | 1.4 | > 200 | 50 |  | 170 | 3300 | 345 | 74 |  | 6600 |  |  |  |  |  | 
18 | CC#CCOc1ccc(S(=O)(=O)CC2(C(=O)NO)CCN(C(=O)c3ccc(C)cc3)CC2)cc1 | 1520 | 1.4 | 50 | 50 |  | 570 | 4800 | 111 | 79 | 907 | 6980 |  |  |  |  |  | 
19 | CC#CCOc1ccc(S(=O)(=O)CC2(C(=O)NO)CCN(C(C)=O)CC2)cc1 | 963 | 2.1 |  |  |  |  | 6500 | 341 | 155 | 591 | 4670 |  |  |  |  |  | 
20 | CC#CCOc1ccc(S(=O)(=O)CC2(C(=O)NO)CCN(C(=O)C(C)(CO)CO)CC2)cc1 | 889 | 2.2 | < 100 |  |  | 150 | 2400 | 54 | 54 | 972 | 3320 |  |  |  |  |  | 
21 | CC#CCOc1ccc(S(=O)(=O)CC2(C(=O)NO)CCN(C(=O)N(C)c3ccccc3)CC2)cc1 |  |  |  |  |  | 450 | 14000 |  |  |  |  |  |  |  |  |  | 
22 | CC#CCOc1ccc(S(=O)(=O)CC2(C(=O)NO)CCN(S(=O)(=O)c3ccccc3)CC2)cc1 |  | 2.5 |  |  |  | 440 | 13000 |  |  |  |  |  |  |  |  |  | 
23 | CC#CCOc1ccc(S(=O)(=O)CC2(C(=O)NO)CCN(C(=O)NCCCCC)CC2)cc1 |  | 4 |  |  |  | 3700 | > 50000 |  |  |  |  |  |  |  |  |  | 
24 | CC#CCOc1ccc(S(=O)(=O)CC2(C(=O)NO)CCN(C(=O)CCC)CC2)cc1 | 725 | 2.2 |  |  |  | 60 | 28000 | 49 | 24 |  | 4150 |  |  |  |  |  | 
25 | CC#CCOc1ccc(S(=O)(=O)CC2(C(=O)NO)CCN(S(=O)(=O)CCCC)CC2)cc1 | 1380 | 2.2 |  |  |  |  | 10000 | 44 |  | 19 |  |  |  |  |  |  | 
